Measured values reported in patent US20160038468A1 (priority 2013, published 2016).
Converted amounts (≈) assume the structure as drawn. Where two headings read alike, the source gives them in different places.

Columns and labels:
Format in all cases: cell-based
Gardnerella vaginalis = experiment: Agar dilution MIC (CLSI), Gardnerella vaginalis vaginal isolates; details: for Number of strains with indicated MIC: 100 samples
Atopobium vaginae = experiment: Agar dilution MIC (CLSI), Atopobium vaginae vaginal isolates; details: for Number of strains with indicated MIC: 62 samples
Mobiluncus spp = experiment: Agar dilution MIC (CLSI), Mobiluncus spp vaginal isolate; details: read-out: Minimal Inhibitory Concentration (MIC)
Prevotella bivia = experiment: Agar dilution MIC (CLSI), Prevotella bivia vaginal isolates; details: for Number of strains with indicated MIC: 34 samples; for MIC: read-out: Minimal Inhibitory Concentration (MIC)
Anaerococcus tetradius = experiment: Agar dilution MIC (CLSI), Anaerococcus tetradius vaginal isolates; details: for MIC: read-out: Minimal Inhibitory Concentration (MIC); for Number of strains with indicated MIC: 21 samples
Peptoniphilus lacrimalis = experiment: Agar dilution MIC (CLSI), Peptoniphilus lacrimalis vaginal isolates; details: for Number of strains with indicated MIC: 20 samples; for MIC: read-out: Minimal Inhibitory Concentration (MIC)
[1] = Gardnerella vaginalis, # tested 107
[2] = Fannyhessea vaginae, # tested 62
[3] = Anaerococcus tetradius, # tested 21
[4] = Peptoniphilus lacrimalis, # tested 20

For `CCC[C@@H]1C[C@@H](C(=O)N[C@@H]([C@H]2O[C@H](SC)[C@H](O)[C@@H](O)[C@H]2O)[C@H](C)Cl)N(C)C1` [Clindamycin], the “MIC Range” value (Gardnerella vaginalis; # tested 107) was 0.015 to 0.5 mg/L, the MIC50 (Gardnerella vaginalis; [1]) was 0.125 mg/L (≈ 0.294 µM) and the MIC90 (Gardnerella vaginalis; [1]) was 0.25 mg/L (≈ 0.588 µM). The “Number of strains with indicated MIC” value (Gardnerella vaginalis; MIC 0.015 μg/ml) was 1, the “Number of strains with indicated MIC” value (Gardnerella vaginalis; MIC 0.03 μg/ml) was 11 and the “Number of strains with indicated MIC” value (Gardnerella vaginalis; MIC 0.06 μg/ml) was 25. The “Number of strains with indicated MIC” value (Gardnerella vaginalis; MIC […] μg/ml) was 1, the MIC (Atopobium vaginae; Fannyhessea vaginae, read-out: Minimal Inhibitory Concentration (MIC)) was greater than 128 mg/L and the MIC50 (Atopobium vaginae; [2]) was 0.06 mg/L (≈ 0.141 µM). For the same compound, the MIC90 (Atopobium vaginae; [2]) was 0.25 mg/L (≈ 0.588 µM), the “Number of strains with indicated MIC” value (Atopobium vaginae; MIC 0.03 μg/ml) was 28 and the “Number of strains with indicated MIC” value (Atopobium vaginae; MIC 0.06 μg/ml) was 10. For the same compound, the “Number of strains with indicated MIC” value (Atopobium vaginae; MIC 8 μg/ml) was 1, the “Number of strains with indicated MIC” value (Atopobium vaginae; MIC 16 μg/ml) was 1 and the “Number of strains with indicated MIC” value (Atopobium vaginae; MIC >[…]) was 1. For the same compound, the “Number of strains with indicated MIC” value (Atopobium vaginae; MIC […] μg/ml) was 1, the MIC (Mobiluncus spp) was 4 mg/L (≈ 9.41 µM) and the “Number of strains with indicated MIC” value (Prevotella bivia; MIC 0.03 μg/ml) was 8. For the same compound, the “Number of strains with indicated MIC” value (Prevotella bivia; MIC 0.06 μg/ml) was 1, the “Number of strains with indicated MIC” value (Prevotella bivia; MIC >[…]) was 25 and the MIC (Prevotella bivia; Prevotella bivia, isolate 601203 5) was 0.03 mg/L (≈ 0.0706 µM). For the same compound, the MIC (Prevotella bivia; Prevotella bivia, isolate 601212 9) was 0.03 mg/L (≈ 0.0706 µM), the MIC (Prevotella bivia; Prevotella bivia, isolate 601293 22) was 0.03 mg/L (≈ 0.0706 µM) and the MIC (Prevotella bivia; Prevotella bivia, isolate 601355 B) was 0.06 mg/L (≈ 0.141 µM). The MIC (Prevotella bivia; Prevotella bivia, isolate 601367 M) was 0.03 mg/L (≈ 0.0706 µM), the MIC (Prevotella bivia; Prevotella bivia, isolate 601388 T) was 0.03 mg/L (≈ 0.0706 µM) and the MIC (Prevotella bivia; Prevotella bivia, isolate 601389 J) was 0.03 mg/L (≈ 0.0706 µM). The MIC (Prevotella bivia; Prevotella bivia, isolate 601409 V) was 0.03 mg/L (≈ 0.0706 µM), the MIC (Prevotella bivia; Prevotella bivia, isolate 601410 12) was 0.03 mg/L (≈ 0.0706 µM) and the MIC (Prevotella bivia; Prevotella bivia) was greater than 128 mg/L. The MIC50 (Prevotella bivia; Prevotella bivia, # tested 34) was greater than 128 mg/L, the MIC90 (Prevotella bivia; Prevotella bivia, # tested 34) was greater than 128 mg/L and the “Minimal Inhibitory Concentration (MIC)” value (Prevotella bivia; isolate 601096 25) was greater than 128 mg/L. The “Minimal Inhibitory Concentration (MIC)” value (Prevotella bivia; isolate 601166 M) was greater than 128 mg/L, the “Minimal Inhibitory Concentration (MIC)” value (Prevotella bivia; isolate 601202 21) was greater than 128 mg/L and the “Minimal Inhibitory Concentration (MIC)” value (Prevotella bivia; isolate 601213 9A) was greater than 128 mg/L. For the same compound, the “Minimal Inhibitory Concentration (MIC)” value (Prevotella bivia; isolate 601214 B) was greater than 128 mg/L, the “Minimal Inhibitory Concentration (MIC)” value (Prevotella bivia; isolate 601241 13) was greater than 128 mg/L and the “Minimal Inhibitory Concentration (MIC)” value (Prevotella bivia; isolate 601243 15) was greater than 128 mg/L. The “Minimal Inhibitory Concentration (MIC)” value (Prevotella bivia; isolate 601255 10) was greater than 128 mg/L, the “Minimal Inhibitory Concentration (MIC)” value (Prevotella bivia; isolate 601261 C) was greater than 128 mg/L and the “Minimal Inhibitory Concentration (MIC)” value (Prevotella bivia; isolate 601283 20) was greater than 128 mg/L. For the same compound, the “Minimal Inhibitory Concentration (MIC)” value (Prevotella bivia; isolate 601285 14) was greater than 128 mg/L, the “Minimal Inhibitory Concentration (MIC)” value (Prevotella bivia; isolate 601305 H) was greater than 128 mg/L and the “Minimal Inhibitory Concentration (MIC)” value (Prevotella bivia; isolate 601340 31) was greater than 128 mg/L. For the same compound, the “Minimal Inhibitory Concentration (MIC)” value (Prevotella bivia; isolate 601374 A1) was greater than 128 mg/L, the “Minimal Inhibitory Concentration (MIC)” value (Prevotella bivia; isolate 601378 B) was greater than 128 mg/L and the “Minimal Inhibitory Concentration (MIC)” value (Prevotella bivia; isolate 601379 19) was greater than 128 mg/L. The “Minimal Inhibitory Concentration (MIC)” value (Prevotella bivia; isolate 601389 10) was greater than 128 mg/L, the “Minimal Inhibitory Concentration (MIC)” value (Prevotella bivia; isolate 601392 14) was greater than 128 mg/L and the “Minimal Inhibitory Concentration (MIC)” value (Prevotella bivia; isolate 601429 1) was greater than 128 mg/L. For the same compound, the “Minimal Inhibitory Concentration (MIC)” value (Prevotella bivia; isolate 601433 19) was greater than 128 mg/L, the “Minimal Inhibitory Concentration (MIC)” value (Prevotella bivia; isolate 601449 E) was greater than 128 mg/L and the “Minimal Inhibitory Concentration (MIC)” value (Prevotella bivia; isolate 601453 A) was greater than 128 mg/L. The “Minimal Inhibitory Concentration (MIC)” value (Prevotella bivia; isolate 601455 D1) was greater than 128 mg/L, the “Minimal Inhibitory Concentration (MIC)” value (Prevotella bivia; isolate 601458 16) was greater than 128 mg/L and the Susceptible (Prevotella bivia; number (%) of isolates, # tested 34) was 9 (26) μg/ml. For the same compound, the Resistant (Prevotella bivia; number (%) of isolates, # tested 34, resistance: rifaximin >32, metronidazole >32, clindamycin >8 μg/ml) was 25 (74) μg/ml, the MIC (Anaerococcus tetradius; Anaerococcus tetradius, isolate 601098V T) was 2 mg/L (≈ 4.71 µM) and the MIC (Anaerococcus tetradius; Anaerococcus tetradius, isolate 601103V 21) was 2 mg/L (≈ 4.71 µM). It also gave an MIC (Anaerococcus tetradius; Anaerococcus tetradius, isolate 601175V I) of 1 mg/L (≈ 2.35 µM), an MIC (Anaerococcus tetradius; Anaerococcus tetradius, isolate 601202V 11) of 2 mg/L (≈ 4.71 µM) and an MIC (Anaerococcus tetradius; Anaerococcus tetradius, isolate 601212V 14) of 2 mg/L (≈ 4.71 µM). The MIC (Anaerococcus tetradius; Anaerococcus tetradius, isolate 601221V 12) was 0.03 mg/L (≈ 0.0706 µM), the MIC (Anaerococcus tetradius; Anaerococcus tetradius, isolate 601222V 15) was 0.25 mg/L (≈ 0.588 µM) and the MIC (Anaerococcus tetradius; Anaerococcus tetradius, isolate 601242V 17) was 4 mg/L (≈ 9.41 µM). It also gave an MIC (Anaerococcus tetradius; Anaerococcus tetradius, isolate 601256V 9) of 2 mg/L (≈ 4.71 µM), an MIC (Anaerococcus tetradius; Anaerococcus tetradius, isolate 601305V J) of 2 mg/L (≈ 4.71 µM) and an MIC (Anaerococcus tetradius; Anaerococcus tetradius, isolate 601326V H) of 2 mg/L (≈ 4.71 µM). The MIC (Anaerococcus tetradius; Anaerococcus tetradius, isolate 601340V 25) was 2 mg/L (≈ 4.71 µM), the MIC (Anaerococcus tetradius; Anaerococcus tetradius, isolate 601342V N) was 2 mg/L (≈ 4.71 µM) and the MIC (Anaerococcus tetradius; Anaerococcus tetradius, isolate 601368V 42) was 2 mg/L (≈ 4.71 µM). It also gave an MIC (Anaerococcus tetradius; Anaerococcus tetradius, isolate 601369V 12) of 2 mg/L (≈ 4.71 µM), an MIC (Anaerococcus tetradius; Anaerococcus tetradius, isolate 601401V T) of 8 mg/L (≈ 18.8 µM) and an MIC (Anaerococcus tetradius; Anaerococcus tetradius, isolate 601429V 15) of 2 mg/L (≈ 4.71 µM). It also gave an MIC (Anaerococcus tetradius; Anaerococcus tetradius, isolate 601450V 22) of 1 mg/L (≈ 2.35 µM), an MIC (Anaerococcus tetradius; Anaerococcus tetradius) greater than 128 mg/L and an MIC50 (Anaerococcus tetradius; [3]) of 2 mg/L (≈ 4.71 µM). The MIC90 (Anaerococcus tetradius; [3]) was greater than 128 mg/L, the “Number of strains with indicated MIC” value (Anaerococcus tetradius; MIC 0.03 μg/ml) was 1 and the “Number of strains with indicated MIC” value (Anaerococcus tetradius; MIC 8 μg/ml) was 1. For the same compound, the “Number of strains with indicated MIC” value (Anaerococcus tetradius; MIC >[…]) was 3, the “Number of strains with indicated MIC” value (Anaerococcus tetradius; MIC […]) was 1 and the “Minimal Inhibitory Concentration (MIC)” value (Anaerococcus tetradius; isolate 601379V 25) was greater than 128 mg/L. The “Minimal Inhibitory Concentration (MIC)” value (Anaerococcus tetradius; isolate 602375V 22) was greater than 128 mg/L, the “Number of strains with indicated MIC” value (Peptoniphilus lacrimalis; MIC 0.06 μg/ml) was 1 and the “Number of strains with indicated MIC” value (Peptoniphilus lacrimalis; MIC 8 μg/ml) was 1. For the same compound, the “Number of strains with indicated MIC” value (Peptoniphilus lacrimalis; MIC >[…]) was 3, the MIC (Peptoniphilus lacrimalis; Peptoniphilus lacrimalis, isolate 601028V 27A) was 128 mg/L (≈ 301 µM) and the MIC (Peptoniphilus lacrimalis; Peptoniphilus lacrimalis, isolate 601060V 32A) was 0.125 mg/L (≈ 0.294 µM). For the same compound, the MIC (Peptoniphilus lacrimalis; Peptoniphilus lacrimalis, isolate 601078V O) was 0.125 mg/L (≈ 0.294 µM), the MIC (Peptoniphilus lacrimalis; Peptoniphilus lacrimalis, isolate 601084V c) was 0.125 mg/L (≈ 0.294 µM) and the MIC (Peptoniphilus lacrimalis; Peptoniphilus lacrimalis, isolate 601105V 13) was 0.06 mg/L (≈ 0.141 µM). It also gave an MIC (Peptoniphilus lacrimalis; Peptoniphilus lacrimalis, isolate 601139V 17) of 128 mg/L (≈ 301 µM), an MIC (Peptoniphilus lacrimalis; Peptoniphilus lacrimalis, isolate 601255V 12) of 0.25 mg/L (≈ 0.588 µM) and an MIC (Peptoniphilus lacrimalis; Peptoniphilus lacrimalis, isolate 601293V 15) of 0.25 mg/L (≈ 0.588 µM). The MIC (Peptoniphilus lacrimalis; Peptoniphilus lacrimalis, isolate 601305V K-1) was 0.25 mg/L (≈ 0.588 µM), the MIC (Peptoniphilus lacrimalis; Peptoniphilus lacrimalis, isolate 601318V E) was 8 mg/L (≈ 18.8 µM) and the MIC (Peptoniphilus lacrimalis; Peptoniphilus lacrimalis, isolate 601330V H) was 0.25 mg/L (≈ 0.588 µM). For the same compound, the MIC (Peptoniphilus lacrimalis; Peptoniphilus lacrimalis, isolate 601336V 47) was 0.25 mg/L (≈ 0.588 µM), the MIC (Peptoniphilus lacrimalis; Peptoniphilus lacrimalis, isolate 601365V 13) was 0.125 mg/L (≈ 0.294 µM) and the MIC (Peptoniphilus lacrimalis; Peptoniphilus lacrimalis, isolate 601368V 39) was 0.25 mg/L (≈ 0.588 µM). For the same compound, the MIC (Peptoniphilus lacrimalis; Peptoniphilus lacrimalis, isolate 601375V E) was 0.25 mg/L (≈ 0.588 µM), the MIC (Peptoniphilus lacrimalis; Peptoniphilus lacrimalis, isolate 601388V B) was 0.25 mg/L (≈ 0.588 µM) and the MIC (Peptoniphilus lacrimalis; Peptoniphilus lacrimalis, isolate 601401V I) was 0.25 mg/L (≈ 0.588 µM). For the same compound, the MIC (Peptoniphilus lacrimalis; Peptoniphilus lacrimalis) was greater than 128 mg/L, the MIC50 (Peptoniphilus lacrimalis; [4]) was 0.25 mg/L (≈ 0.588 µM) and the MIC90 (Peptoniphilus lacrimalis; [4]) was greater than 128 mg/L. For the same compound, the “Minimal Inhibitory Concentration (MIC)” value (Peptoniphilus lacrimalis; isolate 601261V O) was greater than 128 mg/L, the “Minimal Inhibitory Concentration (MIC)” value (Peptoniphilus lacrimalis; isolate 601296V N) was greater than 128 mg/L and the Susceptible (Peptoniphilus lacrimalis; number (%) of isolates, # tested 20) was 14 (70) μg/ml. The Resistant (Peptoniphilus lacrimalis; number (%) of isolates, # tested 20, resistance: rifaximin >32, metronidazole >32, clindamycin >8 μg/ml) was 6 (30) μg/ml.
